Tests used:
primary keratinocytes = assay: % change in live cells vs DMSO control; higher = less cytotoxic; details: time (h post treatment): 20
Experimental: (§1)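 Cytotoxicity in uninfected 2D primary donor keratinocytes (20 h post treatment) and fibroblasts (48 h post treatment), measured with NucSpot live/dead dyes on IncuCyte. Live cells are normalised to the 0.2% DMSO control and shown as % change. Three biological replicates for each of donors 3, 4 and 5.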

[1] = test system: primary dermal fibroblasts; assay: as above; details: time (h post treatment): 48
Experimental: as §1

[2] = test system: HSV-1 K26-GFP infected 3D skin equivalent; assay: % activity on HSV-1 GFP signal (0 = infected DMSO control, -100 = uninfected control); higher = higher signal (negative = inhibition / toxicity); details: time (h post infection): 48
Experimental: (§2)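 Triplicate dose-response (0.04 to 10 uM) of 11 top compounds in 3D bioprinted skin equivalents (submerged and ALI models) infected with GFP-HSV-1 K26 at MOI 0.1 and fixed at 48 hpi. GFP (virus) and tdTomato (fibroblast viability) signals are normalised to per-plate controls.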

[3] = test system: HSV-1 K26-GFP infected primary human skin cells; assay: % change of HSV-1 GFP signal vs untreated infected cells; higher = less antiviral inhibition
Experimental: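 2D primary donor-derived keratinocytes (read at 20 hpi) and donor-matched dermal fibroblasts (read at 48 hpi) infected with GFP-HSV-1 K26 at MOI 1 and treated 1 h later with compound dilutions. IncuCyte GFP integrated intensity is normalised by subtracting mock-infected wells and dividing by untreated infected wells, shown as % change (-100 = full inhibition).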

[4] = test system: HSV-1 K26-GFP infected 3D skin equivalent; assay: % change of tdTomato fibroblast signal relative to infected DMSO control; higher = higher signal (negative = inhibition / toxicity); details: time (h post infection): 48
Experimental: as §2

O=C(Nc1ccc([N+](=O)[O-])cc1Cl)c1cc(Cl)ccc1O [Niclosamide]
Details	% activity on HSV-1 GFP signal, [2] [%]	% change in live cells, [1] [%]	% change in live cells, primary keratinocytes [%]	% change of tdTomato fibroblast signal, [4] [%]
0.041152 µM, model: ALI	-0.742	–	–	8.37
0.041152 µM, model: submerged	-3.85	–	–	-8.01
0.082305 µM, donor: 3	–	-18.7	-8	–
0.082305 µM, donor: 4	–	3	-13	–
0.082305 µM, donor: 5	–	5	-11.7	–
0.123457 µM, model: ALI	-58.6	–	–	0.996
0.123457 µM, model: submerged	-3.15	–	–	-14.3
0.246914 µM, donor: 3	–	-17	-11.7	–
0.246914 µM, donor: 4	–	2.67	-20.7	–
0.246914 µM, donor: 5	–	1.67	-11.3	–
0.37037 µM, model: ALI	-102	–	–	-9.97
0.37037 µM, model: submerged	-59.6	–	–	-34
0.740741 µM, donor: 3	–	-16	-30	–
0.740741 µM, donor: 4	–	-0.333	-20.7	–
0.740741 µM, donor: 5	–	-1	-8	–
1.111111 µM, model: ALI	-99.3	–	–	-7.62
1.111111 µM, model: submerged	-88.3	–	–	-44.6
2.22222 µM, donor: 3	–	-24.7	-14.3	–
2.22222 µM, donor: 4	–	-2	-15.3	–
2.22222 µM, donor: 5	–	-2.67	-13.3	–
3.33333 µM, model: ALI	-103	–	–	-10.3
3.33333 µM, model: submerged	-92.9	–	–	-44.5
6.66667 µM, donor: 3	–	-35	-23	–
6.66667 µM, donor: 4	–	-9	-13	–
6.66667 µM, donor: 5	–	-26	-9	–
10 µM, model: ALI	-98.7	–	–	-8.58
10 µM, model: submerged	-97.1	–	–	-47.05
20 µM, donor: 3	–	-49.7	-61.7	–
20 µM, donor: 4	–	-41.7	-25.7	–
20 µM, donor: 5	–	-63	-26.7	–
60 µM, donor: 3	–	-56	-68	–
60 µM, donor: 4	–	-38	-69.7	–
60 µM, donor: 5	–	-74.33	-54.7	–

% change of HSV-1 GFP signal [%], [3]
Details	0.003 µM	0.0091 µM	0.0274 µM	0.0823 µM	0.2469 µM	0.7407 µM	2.2222 µM	6.6667 µM	20 µM	60 µM
cell type: primary dermal fibroblasts, donor: 5, time (h post infection): 48	-6.14	-7.3	-10.1	-19.9	-37	-51.4	-90	-99.53	-99.789	-99.78
cell type: primary keratinocytes, donor: 3, time (h post infection): 20	4.62	3.94	6.19	9.78	4.16	0.034	-16.7	-24.7	-62.7	-81.3
cell type: primary keratinocytes, donor: 4, time (h post infection): 20	-0.953	-7.59	-0.315	-0.334	-9.22	-11.5	-22.6	-42.3	-61.2	-95.4
cell type: primary keratinocytes, donor: 5, time (h post infection): 20	2.55	-1.84	0.0858	1.91	2.59	-2.44	-35.9	-52.8	-76.5	-95.1

Cc1nc(N(C)C(=O)Cc2ccc(-c3ccccn3)cc2)sc1S(N)(=O)=O [Pritelivir]
Details	% activity on HSV-1 GFP signal, [2] [%]	% change in live cells, [1] [%]	% change in live cells, primary keratinocytes [%]	% change of tdTomato fibroblast signal, [4] [%]
0.041152 µM, model: ALI	4.25	–	–	16.3
0.041152 µM, model: submerged	-6.28	–	–	11.8
0.082305 µM, donor: 3	–	-10.3	-3.33	–
0.082305 µM, donor: 4	–	-2.67	-1	–
0.082305 µM, donor: 5	–	7.67	-1.67	–
0.123457 µM, model: ALI	-38.2	–	–	6.72
0.123457 µM, model: submerged	-11	–	–	-3.78
0.246914 µM, donor: 3	–	-8.67	-6.67	–
0.246914 µM, donor: 4	–	-1	-18.3	–
0.246914 µM, donor: 5	–	7.67	-7.33	–
0.37037 µM, model: ALI	-92.9	–	–	0.531
0.37037 µM, model: submerged	-37.4	–	–	0.74
0.740741 µM, donor: 3	–	-8	-8.33	–
0.740741 µM, donor: 4	–	-6.33	-6	–
0.740741 µM, donor: 5	–	3.67	-0.667	–
1.111111 µM, model: ALI	-106	–	–	-3.11
1.111111 µM, model: submerged	-83.7	–	–	-3.09
2.22222 µM, donor: 3	–	-9	-6.33	–
2.22222 µM, donor: 4	–	-2	-4.67	–
2.22222 µM, donor: 5	–	0.667	-5.33	–
3.33333 µM, model: ALI	-106	–	–	-3.08
3.33333 µM, model: submerged	-96.7	–	–	-6.25
6.66667 µM, donor: 3	–	-11	-0.667	–
6.66667 µM, donor: 4	–	1.33	-44.3	–
6.66667 µM, donor: 5	–	-1	0.333	–
10 µM, model: ALI	-102	–	–	12
10 µM, model: submerged	-94.6	–	–	-0.666
20 µM, donor: 3	–	-10	-38	–
20 µM, donor: 4	–	7	-28.7	–
20 µM, donor: 5	–	-1	7.67	–
60 µM, donor: 3	–	-10	-78.3	–
60 µM, donor: 4	–	3.33	-61.7	–
60 µM, donor: 5	–	-13	-20	–

% change of HSV-1 GFP signal [%], [3]
Details	0.001 µM	0.003 µM	0.0091 µM	0.0274 µM	0.0823 µM	0.2469 µM	0.7407 µM	2.2222 µM	6.6667 µM	20 µM
cell type: primary dermal fibroblasts, donor: 5, time (h post infection): 48	-6.88	-8.21	-6.16	-14.2	-21.8	-61.5	-88.3	-99.754	-99.905	-99.853
cell type: primary keratinocytes, donor: 3, time (h post infection): 20	6.78	7.17	4.27	0.771	-17.7	-65.2	-88.8	-97.9	-98.88	-98.8
cell type: primary keratinocytes, donor: 4, time (h post infection): 20	1.71	10.5	3.75	-0.535	-26	-77.35	-95.7	-99.05	-99.54	-99.35
cell type: primary keratinocytes, donor: 5, time (h post infection): 20	3.7	2.94	1.99	-6.85	-31.7	-72.3	-94.1	-99.54	-99.63	-99.66

Source: the supplement of paper PMC12533247
